Reference: patent publication US12458021B2, “Microbiocidal derivatives” (SYNGENTA CROP PROTECTION AG, priority 2019, dated 2025)

Tests used:
Sclerotinia sclerotiorum = Sclerotinia sclerotiorum / liquid culture (cottony rot); format: cell-based; conditions: PDB potato dextrose broth, mycelia fragments, 24° C., 3-4 days after application, read-out: control of Sclerotinia sclerotiorum (inhibition of growth, photometric)
Procedure, shortened: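 Mycelial fragments of a fresh liquid culture in potato dextrose broth were added to compound dispensed from DMSO solution. Plates were incubated at 24° C. Growth inhibition was measured photometrically 3–4 days after application.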

[1] = system: Blumeria graminis f. sp. tritici (Erysiphe graminis f. sp. tritici); assay: Blumeria graminis f. sp. tritici / wheat / leaf disc preventative (powdery mildew on wheat); format: in vivo; conditions: foliar, wheat leaf segments cv. Kanzler, inoculated 1 day after application, assessed 6-8 days after application, read-out: control of Blumeria graminis f. sp. tritici (percent disease control compared to untreated)
Text: Example B4: Blumeria graminis f. sp. tritici (Erysiphe graminis f. sp. tritici)/Wheat/Leaf Disc Preventative (Powdery Mildew on Wheat) Wheat leaf segments cv. Kanzler are placed on agar in a multiwell plate (24-well format) and sprayed with the formulated test compound diluted in water. The leaf disks are inoculated by shaking powdery mildew infected plants above the test plates 1 day after application. […] […]-192.

Alternaria solani = Alternaria solani / tomato / leaf disc (early blight); format: in vivo; conditions: foliar, tomato leaf disks cv. Baby, inoculated 2 days after application, assessed 5-7 days after application, read-out: control of Alternaria solani (percent disease control compared to untreated)
Description: Example B1: Alternaria solani/Tomato/Leaf Disc (Early Blight) Tomato leaf disks cv. Baby are placed on agar in multiwell plates (24-well format) and sprayed with the formulated test compound diluted in water. The leaf disks are inoculated with a spore suspension of the fungus 2 days after application. The inoculated leaf disks are incubated at 23° C./21° C. […] […]-185.

[2] = system: Magnaporthe grisea (Pyricularia oryzae); assay: whole plant or invertebrate; format: in vivo; conditions: foliar, read-out: control of Magnaporthe grisea (percent disease control compared to untreated)
[3] = system: Puccinia recondita f. sp. tritici; assay: Puccinia recondita f. sp. tritici / wheat / leaf disc curative (brown rust); format: in vivo; conditions: foliar, wheat leaf segments cv. Kanzler, compound applied 1 day after inoculation, assessed 6-8 days after application, read-out: control of Puccinia recondita f. sp. tritici, curative (percent disease control compared to untreated)
Description: Example B10: Puccinia recondita f. sp. tritici/Wheat/Leaf Disc Curative (Brown Rust) Wheat leaf segments cv. Kanzler are placed on agar in multiwell plates (24-well format). The leaf segments are inoculated with a spore suspension of the fungus. Plates are stored in darkness at 19° C. and 75% rh. The formulated test compound diluted in water is applied 1 day after inoculation. […] […]-185.

Pyrenophora teres = Pyrenophora teres / barley / leaf disc preventative (net blotch); format: in vivo; conditions: foliar, barley leaf segments cv. Hasso, inoculated 2 days after application, assessed 5-7 days after application, read-out: control of Pyrenophora teres (disease control compared to untreated)
Procedure, shortened: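 Barley cv. Hasso leaf discs on agar were sprayed with diluted formulated compound, then inoculated with spore suspension 2 days later. Incubation at 20 °C, 65% rh, 12 h light/dark; disease control versus untreated assessed 5-7 days after application.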

[4] = system: Monographella nivalis (Microdochium nivale); assay: Monographella nivalis (Microdochium nivale) / liquid culture (foot rot cereals); format: cell-based; conditions: PDB potato dextrose broth, 24° C., 4-5 days after application, read-out: control of Monographella nivalis (inhibition of growth, photometric)
Procedure, shortened: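 Cryostored M. nivalis conidia mixed into potato dextrose broth and added to 96-well plates holding test compound in DMSO. Incubated at 24° C; growth inhibition read photometrically 4-5 days after application.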

[5] = system: Mycosphaerella arachidis (Cercospora arachidicola); assay: Mycosphaerella arachidis (Cercospora arachidicola) / liquid culture (early leaf spot); format: cell-based; conditions: PDB potato dextrose broth, 24° C., 4-5 days after application, read-out: control of Mycosphaerella arachidis (inhibition of growth, photometric)
Procedure, shortened: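 Conidia from cryogenic storage suspended in potato dextrose broth and added to compound in DMSO. Incubation at 24° C; growth inhibition read photometrically 4-5 days after application.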

[6] = system: Glomerella lagenarium (Colletotrichum lagenarium); assay: Glomerella lagenarium (Colletotrichum lagenarium) / liquid culture (anthracnose); format: cell-based; conditions: Colletotrichum orbiculare, PDB potato dextrose broth, 24° C., 3-4 days after application, read-out: control of Glomerella lagenarium (inhibition of growth, photometric)
Procedure, shortened: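 Conidia from cryogenic storage suspended in potato dextrose broth and added to DMSO compound solution in plates. Incubated at 24° C; growth inhibition read photometrically 3-4 days after application.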

[7] = system: Puccinia recondita f. sp. tritici; assay: Puccinia recondita f. sp. tritici / wheat / leaf disc preventative (brown rust); format: in vivo; conditions: foliar, wheat leaf segments cv. Kanzler, inoculated 1 day after application, assessed 7-9 days after application, read-out: control of Puccinia recondita f. sp. tritici, preventative (percent disease control compared to untreated)
Procedure, shortened: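 Wheat leaf segments (cv. Kanzler) on agar were sprayed with formulated compound, then inoculated with spores 1 day later. Segments were incubated at 19 °C, 75% rh with 12 h light/dark. Percent disease control versus untreated was scored 7–9 days after application.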

Fusarium culmorum = assay: microbe, parasite or virus in culture; format: cell-based; conditions: read-out: control of Fusarium culmorum (inhibition of growth, photometric)
[8] = system: Phaeosphaeria nodorum (Septoria nodorum); assay: Phaeosphaeria nodorum (Septoria nodorum) / wheat / leaf disc preventative (glume blotch); format: in vivo; conditions: Parastagonospora nodorum, foliar, wheat leaf segments cv. Kanzler, inoculated 2 days after application, assessed 5-7 days after application, read-out: control of Phaeosphaeria nodorum (percent disease control compared to untreated)
Procedure, shortened: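 Wheat cv. Kanzler leaf discs on agar were sprayed with formulated compound diluted in water and inoculated with spores 2 days later. Discs were kept at 20° C, 75% rh, 12 h light/dark; percent disease control versus untreated was scored 5-7 days after application.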

[9] = system: Mycosphaerella graminicola (Septoria tritici); assay: Mycosphaerella graminicola (Septoria tritici) / liquid culture (Septoria blotch); format: cell-based; conditions: Zymoseptoria tritici, PDB potato dextrose broth, 24° C., 4-5 days after application, read-out: control of Mycosphaerella graminicola (inhibition of growth, photometric)
Procedure, shortened: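 Conidia from cryogenic storage were mixed into potato dextrose broth and added to test compound in DMSO. Plates were incubated at 24° C, and growth inhibition was read photometrically 4-5 days after application.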

COc1ccc(Nc2cc(F)cc(F)c2)nc1C(=O)NC1(C)CCCC1 [Compound P-107, 6-(3,5-difluoroanilino)-3-methoxy-N-(1-methylcyclopentyl)pyridine-2-carboxamide]
≥ 80%: inhibition at 20 ppm (Sclerotinia sclerotiorum) | pest or weed control at 200 ppm [1] | pest or weed control at 200 ppm (Alternaria solani) | pest or weed control at 200 ppm [2] | pest or weed control at 200 ppm [3] | pest or weed control at 200 ppm (Pyrenophora teres) | inhibition at 20 ppm [4] | inhibition at 20 ppm [5] | inhibition at 20 ppm [6] | pest or weed control at 200 ppm [7] | inhibition at 20 ppm (Fusarium culmorum) | pest or weed control at 200 ppm [8] | inhibition at 20 ppm [9]
